# According to US8633019B2, “Methods for treating spinal muscular atrophy” (PTC Therapeutics, Inc., priority 2008, dated 2014):
# System: inclusion of exon 7 of SMN2 into mRNA transcribed from the SMN2-A minigene
# Test: Fold Activation: luciferase reporter, SMN2-A minigene construct versus SMN2-G minigene construct, in stably transfected HEK293H cells
# Format: cell-based, human
# Conditions: ratio of First Activation using the SMN2-A construct divided by Second Activation using the SMN2-G construct
# Source text: In a specific embodiment, the first cell and the second cell are the same cell type. In some embodiments, the first cell and the second cell are the same cell type and are obtained from the same source or clone. In some embodiments, the first reporter gene and the second reporter gene are the same reporter gene. In other embodiments, the first reporter gene and second reporter gene are different reporter genes. A compound that increases the inclusion of exon 7 of SMN2 into mRNA transcribed from the SMN2 gene will result in a Fold Activation derived from a higher ratio of the First Activation:
# [formula] [formula] [formula] In some embodiments, both the amount and activity of the first and second fusion proteins are detected. Accordingly, as used herein, the Fold Activation for a compound that modulates the inclusion of exon 7 of SMN2 into mRNA transcribed from the SMN2 gene is a ratio of the First Activation divided by the Second Activation.
# The HEK293H cell line stably transfected with the SMN2-A minigene construct was utilized in the HTS. HTS was performed by plating 10,000 cells in each well of a 384-well plate. Each 384-well plate contained 64 control wells used as an internal standard: 16 wells were used as a total control (no test compound, only compound solvent), 16 wells were used as reference standards representing background readings (high inhibitor concentration) and 32 wells were prepared to provide an 8-point dose response curve of puromycin as a non-specific standard control inhibitor. The remaining 320 wells contained individual test compounds. The cells were grown overnight in the presence of test compounds or controls at 37° C. in 5% CO2. After 24 hours, the amount of luminescence was determined using a ViewLux Imaging system (Perkin Elmer).
# Using the SMN2-A minigene construct, a HTS was performed testing a compound library. The amount of the fusion protein expressed from the minigene construct was determined by measuring luciferase activity as described herein. […] Enhancers of fusion protein expression were defined as those compounds that increased luciferase activity by at least three standard deviations above the mean. Based on this analysis, test compounds of Formula (I) were identified as hits and were subsequently confirmed by testing the compounds under the same conditions as in the original HTS. To ensure that the increase in luciferase activity detected in the HTS was due to increased inclusion of exon 7 of SMN2 into mRNA transcripts from the SMN2-A minigene construct, each compound was tested in two different cell lines: the cell line, which was used in the original HTS (HEK293H containing the SMN2-A minigene construct), and a HEK293H cell line that contained the SMN2-G minigene construct.
# Each compound was tested at four concentrations: 15 μM, 3 μM, 0.6 μM, 0.12 μM.
# The Fold Activation results are provided as a ratio of a First Activation using the SMN-2A construct divided by a Second Activation using the SMN-2G construct, wherein 1 star (*) represents active compounds with a fold increase ratio between 1.1-1.3; 2 stars (**) represent active compounds with a fold increase ratio between 1.3-2.0; 3 stars (***) represent active compounds with a fold increase ratio greater than 2.0.
row,Structure (SMILES),Activity (Fold Activation)
1,"O=C(O)c1ccc2nc(-c3ccccc3F)oc2c1 [Cpd 66, 2-(2-fluoro-phenyl)-benzooxazole-6-carboxylic acid]",*** (3 stars (***) represent active compounds with a fold increase ratio greater than 2.0)
2,"Cc1cc(-c2nc3ccc(C(=O)O)cc3o2)c(C)o1 [Cpd 67, 2-(2,5-dimethyl-furan-3-yl)-benzooxazole-6-carboxylic acid]",** (2 stars (**) represent active compounds with a fold increase ratio between 1.3-2.0)
3,"O=C(O)c1ccc2nc(-c3cccnc3)oc2c1 [Cpd 69, 2-pyridin-3-yl-benzooxazole-6-carboxylic acid]",* (1 star (*) represents active compounds with a fold increase ratio between 1.1-1.3)
4,"O=C(O)c1cccc(-c2nc3ccc(C(=O)N4CCCC4)cc3o2)c1 [Cpd 71, 3-[6-(pyrrolidine-1-carbonyl)-benzooxazol-2-yl]-benzoic acid]",** (2 stars (**) represent active compounds with a fold increase ratio between 1.3-2.0)
5,"NC(=O)c1cccc(-c2nc3ccc(NCCc4ccccc4)cc3o2)c1 [Cpd 73, 3-(6-phenethylamino-benzooxazol-2-yl)-benzamide]",* (1 star (*) represents active compounds with a fold increase ratio between 1.1-1.3)
6,"Cc1cc(-c2nc3cc(C(=O)O)ccc3o2)c(C)o1 [Cpd 77, 2-(2,5-dimethyl-furan-3-yl)-benzooxazole-5-carboxylic acid]",* (1 star (*) represents active compounds with a fold increase ratio between 1.1-1.3)
7,"CN1CCCN(c2ccc3nc(-c4cccc(C(=O)O)c4)oc3c2)CC1 [Cpd 81, 3-[6-(4-methyl-[1,4]diazepan-1-yl)-benzooxazol-2-yl]-benzoic acid]",* (1 star (*) represents active compounds with a fold increase ratio between 1.1-1.3)
8,"O=C(O)c1cccc(-c2nc3ccc(Oc4ccccc4)cc3o2)c1 [Cpd 82, 3-(6-phenoxy-benzooxazol-2-yl)-benzoic acid]",** (2 stars (**) represent active compounds with a fold increase ratio between 1.3-2.0)
9,"O=C(O)c1ccc2oc(-c3ccc(N4CCCC4)nc3)nc2c1 [Cpd 89, 2-(6-pyrrolidin-1-yl-pyridin-3-yl)-benzooxazole-5-carboxylic acid]",*** (3 stars (***) represent active compounds with a fold increase ratio greater than 2.0)
10,"O=C(O)c1ccc2oc(-c3ccc(N4CCOCC4)nc3)nc2c1 [Cpd 90, 2-(6-morpholin-4-yl-pyridin-3-yl)-benzooxazole-5-carboxylic acid]",** (2 stars (**) represent active compounds with a fold increase ratio between 1.3-2.0)
11,"O=C(O)c1ccc2oc(-c3ccc(N4CCCCC4)nc3)nc2c1 [Cpd 91, 2-(3,4,5,6-tetrahydro-2H-[1,2′]bipyridinyl-5′-yl)-benzooxazole-5-carboxylic acid]",** (2 stars (**) represent active compounds with a fold increase ratio between 1.3-2.0)
12,"O=C(O)c1ccc2nc(-c3ccc(N4CCC4)nc3)oc2c1 [Cpd 93, 2-(6-azetidin-1-yl-pyridin-3-yl)-benzooxazole-6-carboxylic acid]",** (2 stars (**) represent active compounds with a fold increase ratio between 1.3-2.0)
13,"O=C(O)c1ccc2oc(-c3ccc(OC(F)(F)F)cc3)nc2c1 [Cpd 100, 2-(4-trifluoromethoxy-phenyl)-benzooxazole-5-carboxylic acid]",** (2 stars (**) represent active compounds with a fold increase ratio between 1.3-2.0)
14,"CN(Cc1ccccc1)c1ccc2nc(-c3cccc(C(=O)O)c3)oc2c1 [Cpd 102, 3-[6-(benzyl-methyl-amino)-benzooxazol-2-yl]-benzoic acid]",** (2 stars (**) represent active compounds with a fold increase ratio between 1.3-2.0)
15,"O=C(O)c1ccc2oc(-c3cccc(OC(F)(F)F)c3)nc2c1 [Cpd 105, 2-(3-trifluoromethoxy-phenyl)-benzooxazole-5-carboxylic acid]",* (1 star (*) represents active compounds with a fold increase ratio between 1.1-1.3)
16,"NC(=O)c1cccc(-c2nc3ccc(Nc4ccccc4)cc3o2)c1 [Cpd 106, 3-(6-phenylamino-benzooxazol-2-yl)-benzamide]",* (1 star (*) represents active compounds with a fold increase ratio between 1.1-1.3)
17,"NC(=O)c1cccc(-c2nc3ccc(N4CCCCC4)cc3o2)c1 [Cpd 110, 3-(6-piperidin-1-yl-benzooxazol-2-yl)-benzamide]",* (1 star (*) represents active compounds with a fold increase ratio between 1.1-1.3)
18,"COc1ccc2nc(-c3cccc(C(N)=O)c3)oc2c1 [Cpd 111, 3-(6-methoxy-benzooxazol-2-yl)-benzamide]",** (2 stars (**) represent active compounds with a fold increase ratio between 1.3-2.0)
19,"Cc1ccc2nc(-c3cccc(C(N)=O)c3)oc2c1 [Cpd 112, 3-(6-methyl-benzooxazol-2-yl)-benzamide]",** (2 stars (**) represent active compounds with a fold increase ratio between 1.3-2.0)
20,"CC(=O)Nc1ccc2oc(-c3ccc(Br)c(C)c3)nc2c1 [Cpd 128, N-[2-(4-bromo-3-methyl-phenyl)-benzooxazol-5-yl]-acetamide]",*** (3 stars (***) represent active compounds with a fold increase ratio greater than 2.0)
